Test results as given in patent US20240398813A1, “PHARMACEUTICAL COMPOSITION FOR PREVENTING OR TREATING OVERACTIVE BLADDER” (GWANGJU INSTITUTE OF SCIENCE AND TECHNOLOGY, priority 2021, published 2024).

How the values were obtained:
[1] = target: T1, hyperactive mutant BKCa channels (hSlo G803D/N806K) stably expressed in AD 293 cells (Homo sapiens, UniProt Q12791, G856D/N859K); assay: Cell-based fluorescence assay (FluxOR Potassium Ion Channel Assay) of BKCa channel activation; conditions: 3 μM
T1 construct: expressed in transfected cells
Description: AD 293 cells, which are derivatives of the commonly used HEK 293 cell line and stably express hyperactive mutant BKCa channels (hSlo G803D/N806K) to sensitively detect the effect (Lee et al., 2013), were cultured in Dulbecco' modified Eagle medium (Hyclone, Logan, Utah, […]) supplemented with 10% fetal bovine serum, and selected with 1 mg/mL Geneticin (Gibco, Amarillo, TX, USA). 20,000 cells per well were seeded on a 96-well clear-bottom black plate (Corning, New York, NY, USA) coated with poly-D-lysine (Gibco). BKCa channel activity was measured using the cell-based fluorescence assay, FluxOR Potassium Ion Channel Assay (Thermo Fisher Scientific, Waltham, MA, USA). Experimental procedures were performed according to the manufacturer's instructions. The cells were treated with test compounds dissolved in assay buffer for 15 minutes. Fluorescence was measured using a FlexStation3 multimode microplate reader (Molecular Devices, Silicon Valley, CA, USA) and SoftMax Pro (Molecular Devices). Excitation and emission wavelengths were set to 485 nm and 528 nm, respectively. Fluorescence signals were acquired every 2 seconds for 120 seconds and normalized by the relative fluorescence unit (RFU). The efficacy of a channel activator was determined by analyzing changes (ΔRFU) in the RFU for 80 seconds after channel stimulation.
Activation effects of the synthesized compounds on BKCa channels were evaluated using cell-based fluorescence assay. NS11021 was used as the positive control. The effects were determined based on the initial rate (vi) of channel activation and the apparent EC50 value obtained from fitting data of the dose-response curve. Here, Vi means change values for 4 seconds at the start of channel opening (vi={RFU(t=24 s)−RFU(t=20 s)}/4 s). […]

[2] = target: T1, hyperactive mutant BKCa channels (hSlo G803D/N806K) stably expressed in AD 293 cells; assay: as above; conditions: compounds at 5 μM; n=3; vehicle 0.26

T1 sequence (Q12791 whole entry G856D/N859K): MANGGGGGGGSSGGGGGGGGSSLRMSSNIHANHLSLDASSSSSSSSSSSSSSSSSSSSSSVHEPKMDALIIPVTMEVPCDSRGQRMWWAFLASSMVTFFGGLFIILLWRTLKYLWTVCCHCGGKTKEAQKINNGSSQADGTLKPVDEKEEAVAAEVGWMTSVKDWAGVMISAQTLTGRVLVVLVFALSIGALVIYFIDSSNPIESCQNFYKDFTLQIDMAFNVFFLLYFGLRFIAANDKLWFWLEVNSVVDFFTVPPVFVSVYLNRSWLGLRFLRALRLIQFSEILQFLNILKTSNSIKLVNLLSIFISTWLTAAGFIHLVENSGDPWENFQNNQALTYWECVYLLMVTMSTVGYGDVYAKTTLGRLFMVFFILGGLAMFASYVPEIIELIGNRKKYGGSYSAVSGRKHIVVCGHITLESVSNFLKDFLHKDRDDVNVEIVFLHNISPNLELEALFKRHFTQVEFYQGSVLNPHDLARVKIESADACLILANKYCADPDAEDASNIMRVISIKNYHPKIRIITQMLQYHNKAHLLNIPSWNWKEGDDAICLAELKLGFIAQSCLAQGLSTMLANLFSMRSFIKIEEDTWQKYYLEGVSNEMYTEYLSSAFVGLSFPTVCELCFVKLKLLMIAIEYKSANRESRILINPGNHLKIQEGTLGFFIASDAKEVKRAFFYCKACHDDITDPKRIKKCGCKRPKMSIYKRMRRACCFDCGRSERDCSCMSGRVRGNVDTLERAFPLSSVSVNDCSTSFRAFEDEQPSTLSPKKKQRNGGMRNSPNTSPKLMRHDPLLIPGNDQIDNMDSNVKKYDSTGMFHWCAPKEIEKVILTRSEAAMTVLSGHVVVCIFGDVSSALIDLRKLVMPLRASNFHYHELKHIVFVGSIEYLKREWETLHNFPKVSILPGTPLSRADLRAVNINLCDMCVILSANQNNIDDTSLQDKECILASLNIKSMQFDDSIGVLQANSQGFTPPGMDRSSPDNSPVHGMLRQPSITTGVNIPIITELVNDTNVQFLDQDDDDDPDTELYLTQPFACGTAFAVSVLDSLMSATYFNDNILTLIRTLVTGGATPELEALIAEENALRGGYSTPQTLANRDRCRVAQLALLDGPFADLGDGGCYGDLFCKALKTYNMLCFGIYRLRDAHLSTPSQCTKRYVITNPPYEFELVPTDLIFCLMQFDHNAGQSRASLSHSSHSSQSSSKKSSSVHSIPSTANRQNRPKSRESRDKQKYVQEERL

Compound	activation effect on the BKCa channels at a single concentration [1]	Activity (ΔRFU normalized by activities of LDD175) [2]
O=C(O)c1ccc(Cl)c2c1[nH]c1c3ccc(C(F)(F)F)cc3oc12 [LDD175, reference compound]	significant activation effects	1.00
Cc1ccc2c(c1)c(=O)[nH]c1c(C(=O)Nc3cc(Cl)ccc3C)sc(=S)n12 [TTQC-7, N-(5-chloro-2-methylphenyl)-7-methyl-5-oxo-1-thioxo-4,5-dihydro-1H-thiazolo[3,4-a]quinazoline-3-carboxamide]	–	0.89
COC(=O)c1ccc2c(=O)[nH]c3c(C(=O)NCc4ccccc4Cl)sc(=S)n3c2c1 [TTQC-8, methyl 3-((2-chlorobenzyl)carbamoyl)-5-oxo-1-thioxo-4,5-dihydro-1H-thiazolo[3,4-a]quinazoline-8-carboxylate]	–	0.84
Cc1ccc(NC(=O)c2sc(=S)n3c2[nH]c(=O)c2cc(Cl)ccc23)c(C)c1 [TTQC-9, 7-chloro-N-(2,4-dimethylphenyl)-5-oxo-1-thioxo-4,5-dihydro-1H-thiazolo[3,4-a]quinazoline-3-carboxamide]	–	0.84
Cc1ccc(NC(=O)c2sc(=S)n3c2[nH]c(=O)c2cc(Br)ccc23)c(C)c1 [TTQC-10, 7-bromo-N-(2,4-dimethylphenyl)-5-oxo-1-thioxo-4,5-dihydro-1H-thiazolo[3,4-a]quinazoline-3-carboxamide]	–	0.83
Cc1ccc2c(c1)c(=O)[nH]c1c(C(=O)Nc3ccccc3C)sc(=S)n12 [TTQC-11, 7-methyl-5-oxo-1-thioxo-N-(o-tolyl)-4,5-dihydro-1H-thiazolo[3,4-a]quinazoline-3-carboxamide]	–	0.82
Cc1ccc(Cl)cc1NC(=O)c1sc(=S)n2c1[nH]c(=O)c1cc3c(cc12)OCO3 [TTQC-12, N-(5-chloro-2-methylphenyl)-5-oxo-1-thioxo-4,5-dihydro-1H-[1,3]dioxolo[4,5-g]thiazolo[3,4-a]quinazoline-3-carboxamide]	–	0.81
COC(=O)c1ccc2c(=O)[nH]c3c(C(=O)Nc4ccc(F)cc4F)sc(=S)n3c2c1 [TTQC-13, methyl 3-((2,4-difluorophenyl)carbamoyl)-5-oxo-1-thioxo-4,5-dihydro-1H-thiazolo[3,4-a]quinazoline-8-carboxylate]	–	0.79
Cc1ccc(CNC(=O)c2sc(=S)n3c2[nH]c(=O)c2cc(Br)ccc23)cc1 [TTQC-14, 7-bromo-N-(4-methylbenzyl)-5-oxo-1-thioxo-4,5-dihydro-1H-thiazolo[3,4-a]quinazoline-3-carboxamide]	–	0.76
COc1ccc(OC)c(NC(=O)c2sc(=S)n3c2[nH]c(=O)c2cc(Br)ccc23)c1 [TTQC-15, 7-bromo-N-(2,5-dimethoxyphenyl)-5-oxo-1-thioxo-4,5-dihydro-1H-thiazolo[3,4-a]quinazoline-3-carboxamide]	–	0.71
O=C(NCC1CCCO1)c1sc(=S)n2c1[nH]c(=O)c1cc(Br)ccc12 (stereo not drawn) [TTQC-16, 7-bromo-5-oxo-N-((tetrahydrofuran-2-yl)methyl)-1-thioxo-4,5-dihydro-1H-[1,3]thiazolo[3,4-a]quinazoline-3-carboxamide]	–	0.64
COc1cc2c(=O)[nH]c3c(C(=O)Nc4cc(Cl)ccc4C)sc(=S)n3c2cc1OC [TTQC-17, N-(5-chloro-2-methylphenyl)-7,8-dimethoxy-5-oxo-1-thioxo-4,5-dihydro-1H-thiazolo[3,4-a]quinazoline-3-carboxamide]	–	0.64
COc1ccc(OC)c(NC(=O)c2sc(=S)n3c2[nH]c(=O)c2cc(C)ccc23)c1 [TTQC-18, N-(2,5-dimethoxyphenyl)-7-methyl-5-oxo-1-thioxo-4,5-dihydro-1H-thiazolo[3,4-a]quinazoline-3-carboxamide]	–	0.63
CCc1ccccc1NC(=O)c1sc(=S)n2c1[nH]c(=O)c1cc3c(cc12)OCO3 [TTQC-19, N-(2-ethylphenyl)-5-oxo-1-thioxo-4,5-dihydro-1H-[1,3]dioxolo[4,5-g]thiazolo[3,4-a]quinazoline-3-carboxamide]	–	0.62
O=C(NCc1ccccc1Cl)c1sc(=S)n2c1[nH]c(=O)c1cc(Br)ccc12 [TTQC-20, 7-bromo-N-(2-chlorobenzyl)-5-oxo-1-thioxo-4,5-dihydro-1H-thiazolo[3,4-a]quinazoline-3-carboxamide]	–	0.62
O=C(NCc1ccccc1Cl)c1sc(=S)n2c1[nH]c(=O)c1cc(Cl)ccc12 [TTQC-21, 7-chloro-N-(2-chlorobenzyl)-5-oxo-1-thioxo-4,5-dihydro-1H-thiazolo[3,4-a]quinazoline-3-carboxamide]	–	0.60
COc1cc2c(=O)[nH]c3c(C(=O)Nc4ccccc4)sc(=S)n3c2cc1OC [TTQC-22, 7,8-dimethoxy-5-oxo-N-phenyl-1-thioxo-4,5-dihydro-1H-thiazolo[3,4-a]quinazoline-3-carboxamide]	–	0.57
O=C(NC1CCCC1)c1sc(=S)n2c1[nH]c(=O)c1ccc(Cl)cc12 [TTQC-23, 8-chloro-N-cyclopentyl-5-oxo-1-thioxo-4,5-dihydro-1H-thiazolo[3,4-a]quinazoline-3-carboxamide]	–	0.55
COc1ccccc1NC(=O)c1sc(=S)n2c1[nH]c(=O)c1cc3c(cc12)OCO3 [TTQC-24, N-(2-methoxyphenyl)-5-oxo-1-thioxo-4,5-dihydro-1H-[1,3]dioxolo[4,5-g]thiazolo[3,4-a]quinazoline-3-carboxamide]	–	0.51
CNC(=O)c1sc(=S)n2c1[nH]c(=O)c1ccc(Cl)cc12 [TTQC-25, 8-chloro-N-methyl-5-oxo-1-thioxo-4,5-dihydro-1H-thiazolo[3,4-a]quinazoline-3-carboxamide]	–	0.50
O=C(Nc1ccc(Br)cc1F)c1sc(=S)n2c1[nH]c(=O)c1ccc(Cl)cc12 [TTQC-26, N-(4-bromo-2-fluorophenyl)-8-chloro-5-oxo-1-thioxo-4,5-dihydro-1H-thiazolo[3,4-a]quinazoline-3-carboxamide]	–	0.49
O=C(NCC1CCCO1)c1sc(=S)n2c1[nH]c(=O)c1cc(Cl)ccc12 (stereo not drawn) [TTQC-27, 7-chloro-5-oxo-N-((tetrahydrofuran-2-yl)methyl)-1-thioxo-4,5-dihydro-1H-thiazolo[3,4-a]quinazoline-3-carboxamide]	–	0.47
CCOc1ccccc1NC(=O)c1sc(=S)n2c1[nH]c(=O)c1cc(Cl)ccc12 [TTQC-28, 7-chloro-N-(2-ethoxyphenyl)-5-oxo-1-thioxo-4,5-dihydro-1H-thiazolo[3,4-a]quinazoline-3-carboxamide]	–	0.45
COc1cccc(CNC(=O)c2sc(=S)n3c2[nH]c(=O)c2ccc(Cl)cc23)c1 [TTQC-29, 8-chloro-N-(3-methoxybenzyl)-5-oxo-1-thioxo-4,5-dihydro-1H-thiazolo[3,4-a]quinazoline-3-carboxamide]	–	0.45
O=C(c1sc(=S)n2c1[nH]c(=O)c1cc(Br)ccc12)N1CCCCC1 [TTQC-30, 7-bromo-3-(piperidine-1-carbonyl)-1-thioxo-1H-thiazolo[3,4-a]quinazolin-5(4H)-one]	–	0.37
Cc1ccc(NC(=O)c2sc(=S)n3c2[nH]c(=O)c2cc(C)ccc23)c(C)c1 [TTQC-31, N-(2,4-dimethylphenyl)-7-methyl-5-oxo-1-thioxo-4,5-dihydro-1H-thiazolo[3,4-a]quinazoline-3-carboxamide]	–	0.34
CCc1ccc(NC(=O)c2sc(=S)n3c2[nH]c(=O)c2cc(Br)ccc23)cc1 [TTQC-32, 7-bromo-N-(4-ethylphenyl)-5-oxo-1-thioxo-4,5-dihydro-1H-thiazolo[3,4-a]quinazoline-3-carboxamide]	–	0.34
COc1ccc(CNC(=O)c2sc(=S)n3c2[nH]c(=O)c2ccc(Cl)cc23)cc1 [TTQC-33, 8-chloro-N-(4-methoxybenzyl)-5-oxo-1-thioxo-4,5-dihydro-1H-thiazolo[3,4-a]quinazoline-3-carboxamide]	–	0.34
COc1ccc(OC)c(NC(=O)c2sc(=S)n3c2[nH]c(=O)c2ccc(Cl)cc23)c1 [TTQC-34, 8-chloro-N-(2,5-dimethoxyphenyl)-5-oxo-1-thioxo-4,5-dihydro-1H-thiazolo[3,4-a]quinazoline-3-carboxamide]	–	0.31
